± gives the standard deviation of the averaged measurements.
Tests used:
[1] = test system: S1507-2; experiment: drug sensitivity score (DSS, CellTiter-Glo viability, 72 h) (DSS (dimensionless)); higher = more sensitive; extreme values may be limits of the assay
How it was run: (§1)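 Viability of MPNST cell lines and primary human Schwann cells was read as CellTiter-Glo ATP luminescence after 72 h at 37 °C, 5% CO2, in 384-well plates seeded with 750–1000 cells per well. Each compound had been preprinted at five concentrations in 10-fold steps. Signals were scaled between vehicle and positive-control wells, duplicates averaged where present, and fitted with four-parameter logistic curves. Drug sensitivity score and relative IC50 (censored at the top concentration) come from those fits, and percent inhibition is taken at the top concentration.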

[2] = test system: HSC2 (primary human Schwann cells); experiment: as above
How it was run: as §1

[3] = test system: STS26T; experiment: as above
How it was run: as §1

[4] = test system: HSC1 (primary human Schwann cells); experiment: as above
How it was run: as §1

[5] = test system: S462; experiment: as above
How it was run: as §1

[6] = test system: ST8814; experiment: as above
How it was run: as §1

[7] = test system: S1507-2; experiment: drug sensitivity score (DSS, CellTox-Green cytotoxicity, 72 h) (DSS (dimensionless)); higher = more cytotoxic; extreme values may be limits of the assay
How it was run: (§2)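 MPNST cell lines and primary human Schwann cells were grown for 72 h at 37 °C in 384-well plates containing five 10-fold compound dilutions. CellTox-Green, added before seeding at a final 1:1000 dilution, gave fluorescence from DNA released by disrupted cells, and signals were scaled to vehicle and positive-control wells. Curves were fitted with a four-parameter logistic model. Drug sensitivity score and relative IC50 come from these fits, with IC50 censored at the top concentration.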

[8] = test system: HSC2 (primary human Schwann cells); experiment: as above
How it was run: as §2

[9] = test system: STS26T; experiment: as above
How it was run: as §2

[10] = test system: HSC1 (primary human Schwann cells); experiment: as above
How it was run: as §2

[11] = test system: ST8814; experiment: as above
How it was run: as §2

[12] = test system: S1507-2; experiment: % inhibition of CellTiter-Glo viability at highest tested concentration (72 h), relative to DMSO and benzethonium chloride controls; higher = more inhibition
How it was run: as §1

[13] = test system: HSC2 (primary human Schwann cells); experiment: as above
How it was run: as §1

[14] = test system: STS26T; experiment: as above
How it was run: as §1

[15] = test system: HSC1 (primary human Schwann cells); experiment: as above
How it was run: as §1

[16] = test system: S462; experiment: as above
How it was run: as §1

[17] = test system: ST8814; experiment: as above
How it was run: as §1

| Structure (SMILES) | drug sensitivity score [1] | drug sensitivity score [2] | drug sensitivity score [3] | drug sensitivity score [4] | drug sensitivity score [5] | drug sensitivity score [6] | drug sensitivity score [7] | drug sensitivity score [8] | drug sensitivity score [9] | drug sensitivity score [10] | drug sensitivity score [11] | % inhibition [12] [%] | % inhibition [13] [%] | % inhibition [14] [%] | % inhibition [15] [%] | % inhibition [16] [%] | % inhibition [17] [%] |
| --- | --- | --- | --- | --- | --- | --- | --- | --- | --- | --- | --- | --- | --- | --- | --- | --- | --- |
| CCCCC/C=C/C=C1/C(=O)C=C[C@@H]1C/C=C\CCCC(=O)O [15D-PGJ2] (max concentration tested 800 nM) | 0.113 ± 0.16 | 0 | 0 | 0 | 0 | 0 | 0 | 0 | 0 | 0 | 0 | 4.46 ± 11 | 0.683 | -0.85 | 2.13 | 0.683 ± 8.3 | -9.15 |
| Cc1sc2c(c1C)C(c1ccc(Cl)cc1)=N[C@@H](CC(=O)OC(C)(C)C)c1nnc(C)n1-2 [(+)JQ1] (max concentration tested 10000 nM) | 18.5 ± 0.8 | 10.4 | 8.02 | 10.2 | 11.3 ± 0.7 | 14.8 | 12.7 ± 1.7 | 0 | 0 | 0 | 5.02 | 86.1 ± 1 | 66 | 43.2 | 61.1 | 69.3 ± 1.7 | 75.6 |
| Cc1sc2c(c1C)C(c1ccc(Cl)cc1)=N[C@H](CC(=O)OC(C)(C)C)c1nnc(C)n1-2 [(-)JQ1] (max concentration tested 10000 nM) | 0.382 ± 0.54 | 0.217 | 0.598 | 0.0114 | 0.987 ± 0.67 | 0.724 | 0 | 0 | 0 | 0 | 0 | 12.5 ± 8.2 | 15.6 | 15.6 | 11 | 21.6 ± 8.9 | 20 |
| CC1(C)CCC(CN2CCN(c3ccc(C(=O)NS(=O)(=O)c4ccc(NCC5CCOCC5)c([N+](=O)[O-])c4)c(Oc4cnc5[nH]ccc5c4)c3)CC2)=C(c2ccc(Cl)cc2)C1 [ABT-199] (max concentration tested 10000 nM) | 0 | 0.781 | 0 | 0.0759 | 0.138 ± 0.2 | 0.111 | 0.226 ± 0.32 | 0 | 0 | 0 | 0.467 | 8.98 ± 1.1 | 23.8 | 3.69 | 14.4 | 7.02 ± 15 | 15.5 |
| CC[C@@]1(O)C(=O)OCc2c1cc1n(c2=O)Cc2cc3ccccc3nc2-1 [Camptotechin] (max concentration tested 5000 nM) | 19.2 ± 0.92 | 23.8 | 22 | 22.7 | 26.995 ± 0.022 | 26.9 | 10.95 ± 0.027 | 17.7 | 13.2 | 20.8 | 30.9 | 100 ± 0.18 | 102 | 102 | 101 | 103.58 ± 0.083 | 100 |
| O=C(O)C1(C(=O)O)CCC1.[NH2-].[NH2-].[Pt+2] [Carboplatin aq] (max concentration tested 100000 nM) | 5.78 ± 1.4 | 8.82 | 6.61 | 8.01 | 8.728 ± 0.04 | 6.09 | 2.71 ± 1.2 | 7.86 | 4.47 | 6.3 | 6.79 | 73.8 ± 1.3 | 93.2 | 81.2 | 85.9 | 98.3 ± 1 | 87.5 |
| CCN(CC)CCCC(C)Nc1ccnc2cc(Cl)ccc12 (stereo not drawn) [Chloroquine aq] (max concentration tested 100000 nM) | 20.19 ± 0.053 | 9.45 | 14.5 | 9.99 | 13 ± 1.7 | 17.4 | 18.3 ± 0.29 | 8.02 | 15.1 | 9.24 | 18.6 | 95.13 ± 0.85 | 94.5 | 96.2 | 94.7 | 95.68 ± 0.34 | 96.1 |
| CC1=C2C[C@H]3[C@@H](CC=C4C[C@@H](O)CC[C@@]43C)[C@@H]2CC[C@]12O[C@@H]1C[C@H](C)CN[C@H]1[C@H]2C [Cyclopamine] (max concentration tested 10000 nM) | 0.114 ± 0.16 | 0 | 0 | 0 | 0 | 0 | 0.06 ± 0.085 | 0 | 0 | 0 | 0 | 11.5 ± 3 | 7.88 | 4.33 | 9.19 | -1.34 ± 2.9 | -4.3 |
| CC(=O)N(O)CCCCCNC(=O)CCC(=O)N(O)CCCCCNC(=O)CCC(=O)N(O)CCCCCN [Deferoxamine aq] (max concentration tested 10000 nM) | 6.96 ± 1 | 7.69 | 5.09 | 5.55 | 6.82 ± 1.4 | 9.08 | 0.026 ± 0.037 | 0 | 0 | 0 | 3.55 | 61 ± 2.2 | 64.9 | 52.3 | 60.6 | 74.6 ± 9.3 | 88.2 |
| Cc1c(C(=O)Nc2ccc(N3C[C@@H](C)O[C@@H](C)C3)nc2)cccc1-c1ccc(OC(F)(F)F)cc1 [Erismodegib] (max concentration tested 10000 nM) | 0.871 ± 1.2 | 0 | 0.451 | 0 | 0 | 0 | 14.8 ± 20 | 4.95 | 0 | 1.48 | 0 | 9.49 ± 1.4 | 8.65 | 16.9 | 9.09 | 13.2 ± 2.2 | 1.35 |
| CC(C)NC[C@@H](C(=O)N1CCN(c2ncnc3c2[C@H](C)C[C@H]3O)CC1)c1ccc(Cl)cc1 [GDC-0068] (max concentration tested 10000 nM) | 2.03 ± 1 | 0 | 5.77 | 0.374 | 0.195 ± 0.28 | 0.785 | 0 | 0 | 0 | 0 | 0 | 31.5 ± 4.2 | 6.99 | 44 | 21.6 | 13.5 ± 7.9 | 17.1 |
| Cc1c(CN2CCN(C(=O)[C@H](C)O)CC2)sc2c(N3CCOCC3)nc(-c3cnc(N)nc3)nc12 [GDC-0980] (max concentration tested 10000 nM) | 12.2 ± 0.97 | 12.5 | 12.5 | 11.8 | 10.5 ± 0.55 | 9.92 | 0.544 ± 0.76 | 0 | 0 | 0 | 1.59 | 79.39 ± 0.55 | 80.9 | 83.4 | 82.8 | 76.6 ± 3.3 | 90 |
| C[C@H]1C=C2C(=O)O[C@H]3CC[C@@H](C1)[C@@]23O [Galiellalactone] (max concentration tested 50000 nM) | 7.75 ± 0.57 | 7.95 | 9.38 | 11.2 | 9.23 ± 1.4 | 7.08 | 2.69 ± 1.4 | 0 | 2.26 | 0.367 | 0 | 92.8 ± 14 | 98.5 | 101 | 97.6 | 100 ± 2.5 | 88.9 |
| COC1=C2C[C@@H](C)C[C@H](OC)[C@H](O)[C@@H](C)/C=C(\C)[C@H](OC(N)=O)[C@@H](OC)/C=C\C=C(/C)C(=O)NC(=CC1=O)C2=O [Geldanamycin] (max concentration tested 10000 nM) | 8.65 ± 0.52 | 16.7 | 12.3 | 16.7 | 15.8 ± 0.19 | 12 | 5.24 ± 1.8 | 20.2 | 8.09 | 20.4 | 2.65 | 97.21 ± 0.53 | 94.7 | 94.2 | 96.7 | 98.4 ± 1.8 | 90.6 |
| Nc1cccc2c1CN(C1CCC(=O)NC1=O)C2=O (stereo not drawn) [Lenalidomide] (max concentration tested 10000 nM) | 1.35 ± 1.9 | 0.0019 | 0 | 0.47 | 0 | 0 | 0 | 2.65 | 0 | 0 | 0 | 10.8 ± 9.4 | 11 | 0.527 | 9.28 | 2.04 ± 9.8 | 3.01 |
| Cn1cnc2c(F)c(Nc3ccc(Br)cc3F)c(C(=O)NOCCO)cc21 [MEK-162] (max concentration tested 1000 nM) | 1.31 ± 1.3 | 0 | 2.04 | 0.0621 | 2.73 ± 0.038 | 1.66 | 0 | 0 | 0 | 0 | 0 | 19.9 ± 8.2 | -2.17 | 24.5 | 15.1 | 29.8 ± 0.71 | 23.8 |
| NC(=O)c1cccc2cn(-c3ccc(C4CCCNC4)cc3)nc12 (stereo not drawn) [MK-4827] (max concentration tested 10000 nM) | 5.09 ± 0.48 | 1.47 | 6.01 | 2.86 | 8.55 ± 0.22 | 8.12 | 0.763 ± 1.1 | 0 | 0.673 | 0 | 4.56 | 57.5 ± 6.1 | 23.4 | 67.6 | 40 | 86.1 ± 3 | 89.5 |
| CC(=O)O[C@]1(C(C)=O)CC[C@H]2[C@@H]3C=C(C)C4=CC(=O)CC[C@]4(C)[C@H]3CC[C@@]21C [Megestrol] (max concentration tested 10000 nM) | 0 | 0 | 0 | 0 | 0 | 0 | 0 | 0 | 0 | 0 | 0 | -2.04 ± 5.3 | 8.15 | 1.5 | 9.41 | 2.52 ± 6.2 | 4.75 |
| N[C@@H](Cc1ccc(N(CCCl)CCCl)cc1)C(=O)O [Melphalan aq] (max concentration tested 12500 nM) | 0 | 0 | 0 | 0.445 | 0 | 0 | 0 | 0 | 0 | 0 | 0 | 6.15 ± 8.2 | 6.78 | 2.1 | 18.7 | 5.6 ± 3 | 3.22 |
